From paper PMC6792352, “Limited Chemical Structural Diversity Found to Modulate Thyroid Hormone Receptor in the Tox21 Chemical Library” (Environmental Health Perspectives, 2019)
Structures can show the parent of a compound that is named as a salt.

assay: in vitro; conditions: rat, gh3-tre-luc cells, AC50 (uM) modified / 1000

Row | SMILES | CC50 at 24 h [µM]
1 | CCC(=O)c1ccc(O)cc1 [Paroxypropione] | > 50
2 | c1ccc2c(c1)cc1ccc3cccc4ccc2c1c34 [Benzo(a)pyrene] | > 90
3 | O=[N+]([O-])C(CO)(CO)CO [2-(Hydroxymethyl)-2-nitro-1,3-propanediol] | > 90
4 | NC[C@H]1CC[C@H](C(=O)O)CC1 [Tranexamic acid] | > 20
5 | O=c1[nH]c2ccccc2n1CCCN1CCC(n2c(=O)[nH]c3cc(Cl)ccc32)CC1 [Domperidone] | 40.2
6 | CC(=O)N(CC(O)CN(C(C)=O)c1c(I)c(C(=O)NC[C@@H](O)CO)c(I)c(C(=O)NC[C@@H](O)CO)c1I)c1c(I)c(C(=O)NC[C@@H](O)CO)c(I)c(C(=O)NC[C@@H](O)CO)c1I [Iodixanol] | > 20
7 | CC(C)(C)N [tert-Butylamine] | > 90
8 | CCc1cccc(C)c1N(C(=O)CCl)[C@@H](C)COC [S-Metolachlor] | > 90
9 | CCCCCCCCN1CCCC1=O [1-Octyl-2-pyrrolidone] | > 90
10 | CCCCCC1C(=O)CCC1CC(=O)OC (stereo not shown) [Methyl dihydrojasmonate] | > 90
11 | Cc1ccc2c(Br)cc(Br)c(O)c2n1 [Broquinaldol] | 23
12 | CCOC(=O)C(C)(C)C [Ethylpivalate] | > 90
13 | OCCc1ccccc1 [2-Phenylethanol] | > 50
14 | O=C(NS(=O)(=O)/C=C/c1ccccc1)c1ccc(F)cc1Cl [PharmaGSID_48516] | > 90
15 | O=C(O)CNc1ccccc1 [Potassium anilinoacetate] | > 90
16 | CN1C(=O)COc2c(C(=O)NC3CN4CCC3CC4)cc(Cl)cc21 (stereo not shown) [Azasetron] | 42.1
17 | CCCCCCCCCCCCCCCCSCC(COC)COP(=O)([O-])OCC[N+](C)(C)C (stereo not shown) [Ilmofosine] | 19.3
18 | CCCCCCOC(=O)c1ccc(O)cc1 [Hexylparaben] | 56.8
19 | O=c1c2ccccc2[se]n1-c1ccccc1 [Ebselen] | 19.6
20 | CC(C)(C)C(=O)CC(=O)C(C)(C)C [Dipivaloylmethane] | > 100
21 | CCc1cccc(CC)c1NC(=O)CN(CC(=O)O)CC(=O)O [Etifenin] | > 20
22 | COc1cc(/C=C/C(=O)O[C@H]2CC[C@]34C[C@]35CC[C@]3(C)[C@@H]([C@H](C)CCC=C(C)C)CC[C@@]3(C)[C@@H]5CC[C@H]4C2(C)C)ccc1O [gamma-Oryzanol] | > 50
23 | CCCCOC(=O)C(=O)OCCCC [Dibutyl ethanedioate] | > 90
24 | CCCCN(CCO)CCO [N-Butyldiethanolamine] | > 90
25 | CCCN(CCC)C(=O)CN [C.I. Solvent Black 5] | 3.55
26 | CCCCCCCC[N+](C)(CCCCCCCC)CCCCCCCC [Methyltrioctylammonium trifluoromethanesulfonate] | 4.19
27 | Cc1ccc(C)c(C)c1 [1,2,4-Trimethylbenzene] | > 90

Row | SMILES | CC50 at 24 h [µM]
28 | CO[C@H]1O[C@H](CO)[C@@H](O)[C@H](O)[C@H]1O [Methyl alpha-D-glucopyranoside] | > 90
29 | CCC(C)C1CCCCC1=O (stereo not shown) [2-sec-Butylcyclohexanone] | > 90
30 | OCCCCCCCCCCCCBr [12-Bromo-1-dodecanol] | > 90
31 | CCC(=O)O[C@H]1CC[C@H]2[C@@H]3CCc4cc(O)ccc4[C@H]3CC[C@]12C [beta-Estradiol 17-propionate] | 26.8
32 | C[Si](C)(C)O[Si](C)(C)O[Si](C)(C)C [Octamethyltrisiloxane] | > 90
33 | COC(CC(C)CCCC(C)(C)O)OC (stereo not shown) [Hydroxycitronellal dimethyl acetal] | > 90
34 | CCc1ccc(C)cc1 [4-Ethyltoluene] | > 90
35 | OCc1c[nH]c2ccccc12 [Indole-3-carbinol] | > 90
36 | OCCN1CCN(CCCN2c3ccccc3Sc3ccc(Cl)cc32)CC1 [Perphenazine] | 4.46
37 | CO/N=C(\C(=O)N[C@@H]1C(=O)N2C(C(=O)[O-])=C(C[n+]3ccn4ncccc43)CS[C@H]12)c1nsc(N)n1 [Cefozopran hydrochloride] | > 50
38 | N#Cc1ccc(C2CCCc3cncn32)cc1 (stereo not shown) [Fadrozole hydrochloride] | > 40
39 | NCc1cccc(CN)c1 [1,3-Benzenedimethanamine] | > 90
40 | C=C(C)[C@@H]1CC[C@@H](C)C[C@H]1O [Isopulegol] | > 90
41 | O=C(O)c1cc(-c2ccccc2)nc2ccccc12 [Cinchophen] | > 50
42 | CC(C)(O)c1ccccc1 [2-Phenylpropan-2-ol] | > 90
43 | CCC(C)OC(=O)N1CCCCC1CCO (stereo not shown) [Icaridin] | > 90
44 | c1ccc2scnc2c1 [Benzothiazole] | > 90
45 | Clc1ccccc1-c1nnc(-c2ccccc2Cl)nn1 [Clofentezine] | > 90
46 | COC=O [Methyl formate] | > 8
47 | CC1=C(C)S(=O)(=O)CCS1(=O)=O [Dimethipin] | > 90
48 | Cc1noc(NS(=O)(=O)c2ccc(N)cc2)c1C [Sulfisoxazole] | > 50
49 | O=C(Cl)c1cc(Cl)cc(Cl)c1 [3,5-Dichlorobenzoyl chloride] | > 90
50 | C#CCN(C)CCCOc1ccc(Cl)cc1Cl [Clorgyline hydrochloride] | 28.1
51 | CC[C@]1(O)C[C@H]2CN(CCc3c([nH]c4ccccc34)[C@@](C(=O)OC)(c3cc4c(cc3OC)N(C)[C@H]3[C@@](O)(C(N)=O)[C@H](O)[C@]5(CC)C=CCN6CC[C@]43[C@@H]65)C2)C1 [Vindesine sulfate salt] | 0.425
52 | CO[C@H]1C[C@@H]2CC[C@@H](C)[C@@](O)(O2)C(=O)C(=O)N2CCCC[C@H]2C(=O)O[C@H]([C@H](C)C[C@@H]2CC[C@@H](OC(=O)C(C)(CO)CO)[C@H](OC)C2)CC(=O)[C@H](C)/C=C(\C)[C@@H](O)[C@@H](OC)C(=O)[C@H](C)C[C@H](C)/C=C/C=C/C=C/1C [Temsirolimus] | > 50
53 | O=C1NC(=O)c2ccccc21 [Potassium 1,3-dioxo-1,3-dihydroisoindol-2-ide] | > 90
54 | CCCC(CC)c1ccccc1 (stereo not shown) [3-Phenylhexane] | > 90

Row | SMILES | CC50 at 24 h [µM]
55 | CC(C)Nc1nc(N)nc(Cl)n1 [Deethylatrazine] | > 90
56 | O=C(O)Cc1cccc(-c2cc(CCCCCCc3ccc(O[C@H]4O[C@H](CO)[C@@H](O)[C@H](O)[C@@H]4O)c(-c4cccc(CC(=O)O)c4)c3)ccc2O[C@H]2O[C@H](CO)[C@@H](O)[C@H](O)[C@@H]2O)c1 [Bimosiamose] | > 50
57 | O=C(Nc1ccccc1)c1cc(Cl)ccc1O [5-Chlorosalicylanilide] | 7.85
58 | CNC(=O)O/N=C/C(C)(C)SC [Aldicarb] | > 90
59 | OC(CN1CCCCC1)c1cc(-c2ccccc2)on1 (stereo not shown) [Perisoxal citrate] | > 50
60 | Clc1ccc(C(Cl)(Cl)Cl)cc1 [4-Chlorobenzotrichloride] | > 90
61 | COc1cc(C(=O)NCc2ccc(OCCN(C)C)cc2)cc(OC)c1OC [Trimethobenzamide hydrochloride] | > 20
62 | COc1cc([C@H]2Oc3cc([C@H]4Oc5cc(O)cc(O)c5C(=O)[C@@H]4O)ccc3O[C@@H]2CO)ccc1O [Silybin] | > 90
63 | NCCNCCNCCNCCN [Tetraethylenepentamine] | > 90
64 | Brc1nc2ccccc2s1 [2-Bromobenzothiazole] | > 90
65 | Cc1occc1C(=O)Nc1ccc(C(=O)N2CCC(F)(F)/C(=C\C(=O)N3CCC(N4CCCCC4)CC3)c3ccccc32)cc1 [YM218] | 11.8
66 | CC(C)(C)[C@H](O)[C@H](Cc1ccc(Cl)cc1)n1cncn1 (racemic) [Paclobutrazol] | > 90
67 | O=C(O)C(Cc1cc(I)c(O)c(I)c1)c1ccccc1 (stereo not shown) [Iodoalphionic acid] | > 50
68 | Nc1ccc(Sc2ccc(N)cc2)cc1 [4,4'-Thiodianiline] | > 90
69 | CCCCCCCCS(=O)(=O)O [Sodium 1-octanesulfonate] | > 90
70 | CC(=O)c1ccc(C)cc1 [p-Methylacetophenone] | > 90
71 | ClCc1ccccn1 [2-(Chloromethyl)pyridine hydrochloride] | > 90
72 | CCCCCN(CCCCC)C(=O)C(CCC(=O)O)NC(=O)c1ccc(Cl)c(Cl)c1 (stereo not shown) [Lorglumide sodium] | > 50
73 | c1cc(-c2ccncc2)ccn1 [4,4'-Bipyridine] | > 90
74 | NC(=O)C1c2ccccc2CCc2ccccc21 [Cyheptamide] | > 50
75 | CCCCCCCCCCCCCC(=O)OCC [Ethyl tetradecanoate] | > 90
76 | CC(C)[N+](C)(CCOC(=O)C1c2ccccc2Oc2ccccc21)C(C)C [Propantheline bromide] | > 90
77 | OCC1CO1 (stereo not shown) [Glycidol] | > 90
78 | Cc1ccccc1S(=O)(=O)O [Sodium 2-methylbenzenesulfonate] | > 100
79 | Cc1c(C(=O)NCCO)[n+]([O-])c2ccccc2[n+]1[O-] [Olaquindox] | > 50

same assay, conditions: rat, gh3-tre-luc cells, AC50 (uM) modified / 1000, Tox21_110001=Tox21_112876; viability, 1 nM T3 present, 24 h

Row | SMILES | CC50 at 24 h [µM]
80 | CC(C)=CCN1CC[C@]2(C)c3cc(O)ccc3C[C@H]1[C@H]2C [(+)-Pentazocine succinate] | > 90

same assay, conditions: rat, gh3-tre-luc cells, AC50 (uM) modified / 1000, Tox21_110001=Tox21_201490; viability, 1 nM T3 present, 24 h

Row | SMILES | CC50 at 24 h [µM]
81 | CC(C)(O)C#N [2-Hydroxy-2-methylpropanenitrile] | > 100

same assay, conditions: rat, gh3-tre-luc cells, AC50 (uM) modified / 1000, Tox21_110001=Tox21_300994; viability, 1 nM T3 present, 24 h

Row | SMILES | CC50 at 24 h [µM]
82 | CCOC(=O)C(Cl)Cc1cc(-n2nc(C)n(C(F)F)c2=O)c(F)cc1Cl (stereo not shown) [Carfentrazone-ethyl] | > 90

same assay, conditions: rat, gh3-tre-luc cells, AC50 (uM) modified / 1000, Tox21_110001=Tox21_302136; viability, 1 nM T3 present, 24 h

Row | SMILES | CC50 at 24 h [µM]
83 | COc1cccc(C=O)c1 [3-Methoxybenzaldehyde] | > 90

same assay, conditions: rat, gh3-tre-luc cells, AC50 (uM) modified / 1000, Tox21_110001=Tox21_302420; viability, 1 nM T3 present, 24 h

Row | SMILES | CC50 at 24 h [µM]
84 | CNC(=O)Oc1ccccc1C1OCCO1 [Dioxacarb] | > 90

same assay, conditions: rat, gh3-tre-luc cells, AC50 (uM) modified / 1000, Tox21_110001=Tox21_303256; viability, 1 nM T3 present, 24 h

Row | SMILES | CC50 at 24 h [µM]
85 | CC(C)(O)C#N [2-Hydroxy-2-methylpropanenitrile] | > 90
